According to US20240287124A1, “PRODRUGS OF 4'-SUBSTITUTED NUCLEOSIDE REVERSE TRANSCRIPTASE INHIBITORS” (Merck Sharp & Dohme LLC, priority 2023, published 2024):
≈ marks a conversion by molar mass, not a printed value. Read-outs that look alike come from different tables or passages of the source.

Experiments:
[1] = Aqueous solubility in PBS, pH 7.4; format: physicochemical; details: for solubility at 24 h: phosphate buffered saline, pH 7.4, aqueous buffer, thermodynamic from solid, pH 7.4 phosphate buffered saline, amorphous or crystalline material, read-out: Aqu. Solubility
Method: Aqueous solubility of the compounds was determined by suspending excess solid (typically 0.3-0.5 mg) in PBS, pH 7.4, at a concentration of 0.5 mg/mL. The suspension was vortexed for 10-30 seconds to wet the material and stirred at 600 rpm for 24 hours. For analysis by UPLC, 150 μL aliquot sample was transferred into a […] PVDF spin filter and centrifuged at 14,000 rpm for 5 minutes. 100 μL of the filtrate was diluted with 100 μL 1:1 Acetonitrile (ACN):H2O. The resultant samples were analyzed using UPLC and quantified against a standard curve of the compound of interest dissolved in 1:1 ACN:H2O. The retains of the solids were checked by XRPD and PLM to determine if the phase of the material was crystalline or amorphous.

[2] = tested on: HIV-1 wild-type (R8) virus; test: Viral KINetics in Green cells (VIKING) assay, HIV-1 replication in MT4-GFP reporter cells; format: cell-based
Outline: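 MT4-GFP cells infected overnight with HIV-1 R8 at MOI ~0.01, then added to compound plates in RPMI with 10% normal human serum; 10-point 3-fold dilutions (typically 4 μM-0.2 nM). Green cells counted at ~48 h and 72 h; reproductive ratio (72 h/48 h) gave % inhibition, IC50 by 4-parameter fit.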

[3] = Human immunodeficiency virus 1, 10% normal human serum, MT4-GFP cells, HIV-1 wild-type (R8), read-out: Viking (10% NHS), IC50

## C#C[C@]1(CO)O[C@@H](n2ccc3c(N)nc(Cl)nc32)C[C@@H]1OC(=O)CCCc1ccccc1 [Example 60, (2R,3S,5R)-5-(4-amino-2-chloro-7H-pyrrolo[2,3-d]pyrimidin-7-yl)-2-ethynyl-2-(hydroxymethyl)tetrahydrofuran-3-yl 4-phenylbutanoate]
[1]
  solubility at 24 h: < 1 µg/mL
[2]; [3]
  IC50: 3.5 nM

## C#C[C@]1(COC(=O)OCc2oc(=O)oc2C)O[C@@H](n2ccc3c(N)nc(Cl)nc32)C[C@@H]1O [Example 143]
[1]
  solubility at 24 h: 229 µg/mL (≈ 493 µM)
[2]; [3]
  IC50: 2.9 nM

## C#C[C@]1(CO)O[C@@H](n2ccc3c(NC(=O)c4ccccc4)nc(Cl)nc32)C[C@@H]1O [Example 19, N-(2-chloro-7-((2R,4S,5R)-5-ethynyl-4-hydroxy-5-(hydroxymethyl)tetrahydrofuran-2-yl)-7H-pyrrolo[2,3-d]pyrimidin-4-yl)benzamide]
[1]
  solubility at 24 h: 34 µg/mL (≈ 82.4 µM)
[2]; [3]
  IC50: 382 nM

## C#C[C@]1(COC(=O)CCCC[C@@H]2SC[C@@H]3NC(=O)N[C@@H]32)O[C@@H](n2ccc3c(N)nc(Cl)nc32)C[C@@H]1O [Example 145]
[1]
  solubility at 24 h: 38 µg/mL (≈ 71 µM)
[2]; [3]
  IC50: 3.2 nM

## C#C[C@]1(COC(=O)CCCCCCCCCCCCCCC)O[C@@H](n2ccc3c(N)nc(Cl)nc32)C[C@@H]1O [Example 16, ((2R,3S,5R)-5-(4-amino-2-chloro-7H-pyrrolo[2,3-d]pyrimidin-7-yl)-2-ethynyl-3-hydroxytetrahydrofuran-2-yl)methyl palmitate]
[1]
  solubility at 24 h: < 1 µg/mL
[2]; [3]
  IC50: 5.6 nM

## C#C[C@]1(CO)O[C@@H](n2ccc3c(N)nc(Cl)nc32)C[C@@H]1OC(=O)OCCc1ccccc1 [Example 64, (2R,3S,5R)-5-(4-amino-2-chloro-7H-pyrrolo[2,3-d]pyrimidin-7-yl)-2-ethynyl-2-(hydroxymethyl)tetrahydrofuran-3-yl phenethyl carbonate]
[1]
  solubility at 24 h: < 1 µg/mL
[2]; [3]
  IC50: 4.6 nM

## C#C[C@]1(COC(=O)CCCCCCCCCCC)O[C@@H](n2ccc3c(N)nc(Cl)nc32)C[C@@H]1O [Example 90]
[1]
  solubility at 24 h: < 1 µg/mL
[2]; [3]
  IC50: 3.9 nM

## C#C[C@]1(COC(=O)CCCCC)O[C@@H](n2ccc3c(N)nc(Cl)nc32)C[C@@H]1OC(=O)CC [Example 188]
[1]
  solubility at 24 h: 2.4 µg/mL (≈ 5.18 µM)
[2]; [3]
  IC50: 17 nM

## C#C[C@]1(COC(=O)CCCCC)O[C@@H](n2ccc3c(N)nc(Cl)nc32)C[C@@H]1O [Example 116]
[1]
  solubility at 24 h: 39 µg/mL (≈ 95.9 µM)
[2]; [3]
  IC50: 4.2 nM

## C#C[C@]1(CO)O[C@@H](n2ccc3c(N)nc(Cl)nc32)C[C@@H]1O [Compound A, (2R,3S,5R)-5-(4-amino-2-chloro-7H-pyrrolo[2,3-d]pyrimidin-7-yl)-2-ethynyl-2-(hydroxymethyl)tetrahydrofuran-3-ol, reference compound]
[1]; water, in water
  solubility: 500 µg/mL (≈ 1620 µM)
[2]; Human immunodeficiency virus 1, parent compound, read-out: IC50 in the Viking assay
  IC50: 3.3 nM

## C#C[C@]1(COC(=O)OCc2ccccc2)O[C@@H](n2ccc3c(N)nc(Cl)nc32)C[C@@H]1OC(=O)OCCCCCC [Example 68, ((2R,3S,5R)-5-(4-amino-2-chloro-7H-pyrrolo[2,3-d]pyrimidin-7-yl)-2-ethynyl-3-(((hexyloxy)carbonyl)oxy)tetrahydrofuran-2-yl)methylbenzyl carbonate]
[1]
  solubility at 24 h: < 1 µg/mL
[2]; [3]
  IC50: 6.5 nM

## C#C[C@]1(COC(=O)[C@H](C)c2ccccc2)O[C@@H](n2ccc3c(N)nc(Cl)nc32)C[C@@H]1O [Example 100]
[1]
  solubility at 24 h: 72 µg/mL (≈ 163 µM)
[2]; [3]
  IC50: 2.5 nM

## C#C[C@]1(CO)O[C@@H](n2ccc3c(NC(=O)CCc4ccccc4)nc(Cl)nc32)C[C@@H]1O [Example 200]
[1]
  solubility at 24 h: 307 µg/mL (≈ 696 µM)
[2]; [3]
  IC50: 155 nM

## C#C[C@]1(CO)O[C@@H](n2ccc3c(N)nc(Cl)nc32)C[C@@H]1OC(=O)CCCCCCCCC [Example 4, (2R,3S,5R)-5-(4-amino-2-chloro-7H-pyrrolo[2,3-d]pyrimidin-7-yl)-2-ethynyl-2-(hydroxymethyl)tetrahydrofuran-3-yl decanoate]
[1]
  solubility at 24 h: < 1 µg/mL
[2]; [3]
  IC50: 2.9 nM

## C#C[C@]1(COC(=O)OCCCC)O[C@@H](n2ccc3c(N)nc(Cl)nc32)C[C@@H]1OC(=O)OCC [Example 216]
[1]
  solubility at 24 h: < 1 µg/mL
[2]; [3]
  IC50: 21 nM

## C#C[C@]1(CO)O[C@@H](n2ccc3c(N)nc(Cl)nc32)C[C@@H]1OC(=O)CCCCCCCCCCC [Example 25, (2R,3S,5R)-5-(4-amino-2-chloro-7H-pyrrolo[2,3-d]pyrimidin-7-yl)-2-ethynyl-2-(hydroxymethyl)tetrahydrofuran-3-yl dodecanoate]
[1]
  solubility at 24 h: 2 µg/mL (≈ 4.07 µM)
[2]; [3]
  IC50: 3.5 nM

## C#C[C@]1(COC(=O)CCCCCCCCC)O[C@@H](n2ccc3c(N)nc(Cl)nc32)C[C@@H]1OC(=O)CC [Example 47, ((2R,3S,5R)-5-(4-amino-2-chloro-7H-pyrrolo[2,3-d]pyrimidin-7-yl)-2-ethynyl-3-(propionyloxy)tetrahydrofuran-2-yl)methyl decanoate]
[1]
  solubility at 24 h: < 1 µg/mL
[2]; [3]
  IC50: 34 nM

## C#C[C@]1(CO)O[C@@H](n2ccc3c(N)nc(Cl)nc32)C[C@@H]1OC(=O)CCC [Example 179]
[1]
  solubility at 24 h: 27 µg/mL (≈ 71.3 µM)
[2]; [3]
  IC50: 11 nM

## C#C[C@]1(COC(=O)Cc2ccc(Br)cc2)O[C@@H](n2ccc3c(N)nc(Cl)nc32)C[C@@H]1OC(=O)Cc1ccc(Br)cc1 [Example 227]
[1]
  solubility at 24 h: < 1 µg/mL
[2]; [3]
  IC50: 12 nM

## C#C[C@]1(CO)O[C@@H](n2ccc3c(NC(=O)CCCCCCCCCCC)nc(Cl)nc32)C[C@@H]1O [Example 21, N-(2-chloro-7-((2R,4S,5R)-5-ethynyl-4-hydroxy-5-(hydroxymethyl)tetrahydrofuran-2-yl)-7H-pyrrolo[2,3-d]pyrimidin-4yl)dodecanamide]
[1]
  solubility at 24 h: < 1 µg/mL
[2]; [3]
  IC50: 18 nM

## C#C[C@]1(COC(=O)CC2CCCCC2)O[C@@H](n2ccc3c(N)nc(Cl)nc32)C[C@@H]1O [Example 182]
[1]
  solubility at 24 h: 124 µg/mL (≈ 286 µM)
[2]; [3]
  IC50: 3.1 nM

## C#C[C@]1(COC(=O)OCc2cc[nH]c(=O)c2)O[C@@H](n2ccc3c(N)nc(Cl)nc32)C[C@@H]1OC(=O)OCc1ccccc1 [Example 161]
[1]
  solubility at 24 h: < 1 µg/mL
[2]; [3]
  IC50: 5.8 nM

## C#C[C@]1(COC(=O)CCCCCCC)O[C@@H](n2ccc3c(N)nc(Cl)nc32)C[C@@H]1O [Example 57, ((2R,3S,5R)-5-(4-amino-2-chloro-7H-pyrrolo[2,3-d]pyrimidin-7-yl)-2-ethynyl-3-hydroxytetrahydrofuran-2-yl)methyl octanoate]
[1]
  solubility at 24 h: 5 µg/mL (≈ 11.5 µM)
[2]; [3]
  IC50: 2.6 nM

## C#C[C@]1(CO)O[C@@H](n2ccc3c(N)nc(Cl)nc32)C[C@@H]1OC(=O)OCCCC [Example 82]
[1]
  solubility at 24 h: 11 µg/mL (≈ 26.9 µM)
[2]; [3]
  IC50: 4 nM

## C#C[C@]1(COC(=O)c2ccccn2)O[C@@H](n2ccc3c(N)nc(Cl)nc32)C[C@@H]1O [Example 50]
[1]
  solubility at 24 h: 239 µg/mL (≈ 578 µM)
[2]; [3]
  IC50: 1.6 nM

## C#C[C@]1(COC(=O)OCc2ccccc2)O[C@@H](n2ccc3c(N)nc(Cl)nc32)C[C@@H]1OC(=O)OCc1cccnc1 [Example 174]
[1]
  solubility at 24 h: < 1 µg/mL
[2]; [3]
  IC50: 13 nM

## C#C[C@]1(COC(=O)C2CCCCC2)O[C@@H](n2ccc3c(N)nc(Cl)nc32)C[C@@H]1O [Example 88]
[1]
  solubility at 24 h: 157 µg/mL (≈ 375 µM)
[2]; [3]
  IC50: 4.4 nM

## C#C[C@]1(CO)O[C@@H](n2ccc3c(N)nc(Cl)nc32)C[C@@H]1OC(=O)OCc1oc(=O)oc1C [Example 56, (2R,3S,5R)-5-(4-amino-2-chloro-7H-pyrrolo[2,3-d]pyrimidin-7-yl)-2-ethynyl-2-(hydroxymethyl)tetrahydrofuran-3-yl((5-methyl-2-oxo-1,3-dioxol-4-yl)methyl) carbonate]
[1]
  solubility at 24 h: 122 µg/mL (≈ 262 µM)
[2]; [3]
  IC50: 2.3 nM

## C#C[C@]1(COCOC(=O)c2ccccc2)O[C@@H](n2ccc3c(N)nc(Cl)nc32)C[C@@H]1O [Example 51]
[1]
  solubility at 24 h: 309 µg/mL (≈ 698 µM)
[2]; [3]
  IC50: 2.2 nM

## C#C[C@]1(COC(=O)CCCc2ccccc2)O[C@@H](n2ccc3c(N)nc(Cl)nc32)C[C@@H]1O [Example 129]
[1]
  solubility at 24 h: 37 µg/mL (≈ 81.3 µM)
[2]; [3]
  IC50: 3.1 nM

## C#C[C@]1(COC(=O)OCc2cccnc2)O[C@@H](n2ccc3c(N)nc(Cl)nc32)C[C@@H]1CC(=O)CCCc1ccccc1 [Example 173]
[1]
  solubility at 24 h: < 1 µg/mL
[2]; [3]
  IC50: 6.2 nM

## C#C[C@]1(COC(=O)OCc2ccccc2)O[C@@H](n2ccc3c(N)nc(Cl)nc32)C[C@@H]1OC(=O)CCC [Example 194]
[1]
  solubility at 24 h: 2.3 µg/mL (≈ 4.48 µM)
[2]; [3]
  IC50: 17 nM

## C#C[C@]1(COC(=O)OCCCCCCCCCC)O[C@@H](n2ccc3c(N)nc(Cl)nc32)C[C@@H]1O [Example 18, ((2R,3S,5R)-5-(4-amino-2-chloro-7H-pyrrolo[2,3-d]pyrimidin-7-yl)-2-ethynyl-3-hydroxytetrahydrofuran-2-yl)methyl decyl carbonate]
[1]
  solubility at 24 h: 0.45 µg/mL (≈ 0.913 µM)
[2]; [3]
  IC50: 2.1 nM

## C#C[C@]1(COC(=O)OCCCCCC)O[C@@H](n2ccc3c(N)nc(Cl)nc32)C[C@@H]1O [Example 120]
[1]
  solubility at 24 h: 108 µg/mL (≈ 247 µM)
[2]; [3]
  IC50: 3.8 nM

## C#C[C@]1(COC(=O)CCCCCCCCC)O[C@@H](n2ccc3c(N)nc(Cl)nc32)C[C@@H]1OC(C)=O [Example 48, ((2R,3S,5R)-3-acetoxy-5-(4-amino-2-chloro-7H-pyrrolo[2,3-d]pyrimidin-7-yl)-2-ethynyltetrahydrofuran-2-yl)methyl decanoate]
[1]
  solubility at 24 h: < 1 µg/mL
[2]; [3]
  IC50: 35 nM

## C#C[C@]1(COC(=O)OCCCCCCCCCCCCCC)O[C@@H](n2ccc3c(N)nc(Cl)nc32)C[C@@H]1O [Example 163]
[1]
  solubility at 24 h: < 1 µg/mL
[2]; [3]
  IC50: 3.5 nM
